Where a name gives a salt, the structure may show the parent alone.
target: T1, full length SGK1 (Homo sapiens, UniProt O00141); test: SGK1 inhibition Assay A (Caliper LabChip electrophoretic separation of fluorescent peptide substrate and phosphorylated product); assay type: biochemical; conditions: Assay A; 20 μM ATP, 40 min incubation; read-out: SGK1 IC50
T1 construct: 125 μM full length SGK1 (Life Technologies Part #PR7358A); purchased Life Technologies PR7358A
T1 sequence (O00141 1-431): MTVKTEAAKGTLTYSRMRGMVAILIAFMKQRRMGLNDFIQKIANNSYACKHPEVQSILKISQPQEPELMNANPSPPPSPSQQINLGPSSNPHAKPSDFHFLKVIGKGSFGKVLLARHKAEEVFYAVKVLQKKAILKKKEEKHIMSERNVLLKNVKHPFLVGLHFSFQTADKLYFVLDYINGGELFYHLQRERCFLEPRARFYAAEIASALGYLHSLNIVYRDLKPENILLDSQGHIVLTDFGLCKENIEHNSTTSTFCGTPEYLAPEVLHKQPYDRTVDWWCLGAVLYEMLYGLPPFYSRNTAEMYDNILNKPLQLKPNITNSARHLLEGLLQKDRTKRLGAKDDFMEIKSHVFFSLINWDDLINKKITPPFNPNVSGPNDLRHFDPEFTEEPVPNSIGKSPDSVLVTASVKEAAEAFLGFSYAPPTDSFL

SMILES	IC50
COc1cccc(C(=O)N[C@@H]2CCCN(c3cc(-c4ccc(S(C)(=O)=O)cc4)n4ncnc(N)c34)C2)c1 [Example 22, (R)-N-(1-(4-amino-7-(4-(methylsulfonyl)phenyl)pyrrolo[2,1-f][1,2,4]triazin-5-yl)piperidin-3-yl)-3-methoxybenzamide]	12 nM
CCn1cc(-c2cc(N3CCC[C@@H](NC(=O)c4cccc(N5CCN(C)CC5)n4)C3)c3c(N)ncnn23)ccc1=O [Example 799, (R)-N-(1-(4-amino-7-(1-ethyl-6-oxo-1,6-dihydropyridin-3-yl)pyrrolo[2,1-f][1,2,4]triazin-5-yl)piperidin-3-yl)-6-(4-methylpiperazine-1-yl)picolinamide]	3 nM
CS(=O)(=O)c1ccc(-c2cc(N3CCC[C@@H](NC(=O)c4cccc(C(F)(F)F)c4)C3)c3c(N)ncnn23)cc1 [Example 24, (R)-N-(1-(4-amino-7-(4-(methylsulfonyl)phenyl)pyrrolo[2,1-f][1,2,4]triazin-5-yl)piperidin-3-yl)-3-(trifluoromethyl) benzamide]	41 nM
CN(C)CCOc1cc(Cl)sc1C(=O)N[C@@H]1CCCN(c2cc(C3=CCN(C(=O)C4CC4)CC3)n3ncnc(N)c23)C1 [Example 182, (R)-N-(1-(4-amino-7-(1-(cyclopropanecarbonyl)-1,2,3,6-tetrahydropyridin-4-yl)pyrrolo[2,1-f][1,2,4]triazin-5-yl)piperidin-3-yl)-5-chloro-3-(2-(dimethylamino)ethoxy) thiophene-2-carboxamide, 2 TFA]	35 nM
CN(C(=O)c1ccccc1)[C@@H]1CCCN(c2cc(-c3ccc(S(C)(=O)=O)cc3)n3ncnc(N)c23)C1 [Example 123, (R)—N-(1-(4-amino-7-(4-(methylsulfonyl)phenyl)pyrrolo[2,1-f][1,2,4]triazin-5-yl)piperidin-3-yl)-N-methylbenzamide]	606 nM
COC(=O)N1CC=C(c2cc(N3CCC[C@@H](NC(=O)c4sc(Cl)cc4OCCN4CCOCC4)C3)c3c(N)ncnn23)C1 [Example 185, methyl (R)-3-(4-amino-5-(3-(5-chloro-3-(2-morpholinoethoxy)thiophene-2-carboxamido)piperidin-1-yl)pyrrolo[2,1-f][1,2,4]triazin-7-yl)-2,5-dihydro-1H-pyrrole-1-carboxylate, 2 TFA]	43 nM
Nc1ncnn2c(-c3ccc(CN4CCOCC4)cc3)cc(N3CCC[C@@H](NC(=O)c4ccc(Cl)s4)C3)c12 [Example 221]	800 nM
COc1cc(C(=O)N[C@@H]2CCCN(c3cc(-c4ccc(S(C)(=O)=O)cc4)n4ncnc(N)c34)C2)ccn1 [Example 46, (R)-N-(1-(4-amino-7-(4-(methylsulfonyl)phenyl)pyrrolo[2,1-f][1,2,4]triazin-5-yl)piperidin-3-yl)-2-methoxyisonicotinamide, TFA]	10 nM
Cc1ccccc1C(=O)N[C@@H]1CCCN(c2cc(-c3ccc(S(C)(=O)=O)cc3)n3ncnc(N)c23)C1 [Example 52, (R)-N-(1-(4-amino-7-(4-(methylsulfonyl)phenyl)pyrrolo[2,1-f][1,2,4]triazin-5-yl)piperidin-3-yl)-2-methylbenzamide]	210 nM
COC(=O)N1CC=C(c2cc(N3CCC[C@@H](NC(=O)c4sc(Cl)cc4OCCN(C)C)C3)c3c(N)ncnn23)CC1 [Example 174, methyl (R)-4-(4-amino-5-(3-(5-chloro-3-(2-(dimethylamino)ethoxy)thiophene-2-carboxamido)piperidin-1-yl)pyrrolo[2,1-f][1,2,4]triazin-7-yl)-3,6-dihydropyridine-1(2H)-carboxylate]	37 nM

Second part, the compound after the results:

IC50	SMILES
250 nM	CN1CCC(c2cc(C(F)F)sc2C(=O)N[C@@H]2CCCN(c3cc(-c4ccc(C#N)nc4)n4ncnc(N)c34)C2)C1 (stereo partly drawn) [Example 401, N-((R)-1-(4-amino-7-(6-cyanopyridin-3-yl)pyrrolo [2,1-f][1,2,4]triazin-5-yl)piperidin-3-yl)-5-(difluoromethyl)-3-(1-methylpyrrolidin-3-yl)thiophene-2-carboxamide]
0.6 nM	CC(=O)N1CC=C(c2cc(N3CCC[C@@H](NC(=O)c4sc(Cl)cc4O[C@@H]4C[C@H]5CC[C@@H](C4)N5C)C3)c3c(N)ncnn23)C1 [Example 612, N—((R)-1-(7-(1-acetyl-2,5-dihydro-1H-pyrrol-3-yl)-4-aminopyrrolo[2,1-f][1,2,4]triazin-5-yl)piperidin-3-yl)-5-chloro-3-((8-methyl-8-azabicyclo[3.2.1]octan-3-yl)oxy)thiophene-2-carboxamide]
15 nM	N#Cc1ccc(-c2cc(N3CCC[C@@H](NC(=O)c4sc(C(F)F)cc4N4CCOCC4)C3)c3c(N)ncnn23)cn1 [Example 318, (R)—N-(1-(4-amino-7-(6-cyanopyridin-3-yl)pyrrolo[2,1-f][1,2,4]triazin-5-yl)piperidin-3-yl)-5-(difluoromethyl)-3-morpholinothiophene-2-carboxamide]
18 nM	CC(=O)N(C)CCOc1cc(Cl)sc1C(=O)N[C@@H]1CCCN(c2cc(C3=CCN(C(C)=O)C3)n3ncnc(N)c23)C1 [Example 332, (R)—N-(1-(7-(1-acetyl-2,5-dihydro-1H-pyrrol-3-yl)-4-aminopyrrolo[2,1-f][1,2,4]triazin-5-yl)piperidin-3-yl)-5-chloro-3-(2-(N-methylacetamido)ethoxy)thiophene-2-carboxamide]
4 nM	CC(=O)N1CC=C(c2cc(N3CCC[C@@H](NC(=O)c4sc(Cl)cc4OCC4CCCN4)C3)c3c(N)ncnn23)C1 (single isomer, unassigned) [Example 391E]
43 nM	Nc1ncnn2c(C3=CCC(F)(F)CC3)cc(N3CCC[C@@H](NC(=O)c4ccc(Cl)s4)C3)c12 [Example 239]
400 nM	CC(=O)N1CC=C(c2cc(N3CCC[C@@H](NC(=O)c4ccc(CN5CCOCC5)cc4)C3)c3c(N)ncnn23)C1 [Example 463, (R)-N-(1-(7-(1-acetyl-2,5-dihydro-1H-pyrrol-3-yl)-4-aminopyrrolo[2,1-f][1,2,4]triazin-5-yl)piperidin-3-yl)-4-(morpholinomethyl)benzamide]
30 nM	CC(=O)NCCOc1cc(C(F)F)sc1C(=O)N[C@@H]1CCCN(c2cc(-c3cnc(C#N)c(C)c3)n3ncnc(N)c23)C1 [Example 426, (R)-3-(2-acetamidoethoxy)-N-(1-(4-amino-7-(6-cyano-5-methylpyridin-3-yl)pyrrolo[2,1-f][1,2,4]triazin-5-yl)piperidin-3-yl)-5-(difluoromethyl)thiophene-2-carboxamide]
32 nM	CN(C)CCOc1c(C(=O)N[C@@H]2CCCN(c3cc(-c4ccnc(C#N)c4)n4ncnc(N)c34)C2)[nH]c2ccccc12 [Example 366, (R)-N-(1-(4-amino-7-(2-cyanopyridin-4-yl)pyrrolo[2,1-f][1,2,4]triazin-5-yl)piperidin-3-yl)-3-(2-(dimethylamino)ethoxy)-1H-indole-2-carboxamide]
2 nM	COC(=O)N1CC=C(c2cc(N3CCC[C@@H](NC(=O)c4sc(Cl)cc4OC4CCN(C)CC4)C3)c3c(N)ncnn23)C1 [Example 562, methyl (R)-3-(4-amino-5-(3-(5-chloro-3-((1-methylpiperidin-4-yl)oxy)thiophene-2-carboxamido)piperidin-1-yl)pyrrolo[2,1-f][1,2,4]triazin-7-yl)-2,5-dihydro-1H-pyrrole-1-carboxylate]
6 nM	N#Cc1cc(-c2cc(N3CCC[C@@H](NC(=O)c4ccc(C(F)F)s4)C3)c3c(N)ncnn23)ccn1 [Example 505, (R)-N-(1-(4-amino-7-(2-cyanopyridin-4-yl)pyrrolo[2,1-f][1,2,4]triazin-5-yl)piperidin-3-yl)-5-(difluoromethyl)thiophene-2-carboxamide]
113 nM	CC(=O)N1CCC(Oc2cc(C(F)F)sc2C(=O)N[C@@H]2CCCN(c3cc(-c4cncnc4)n4ncnc(N)c34)C2)CC1 [Example 413, (R)-3-((1-acetylpiperidin-4-yl)oxy)-N-(1-(4-amino-7-(pyrimidin-5-yl)pyrrolo[2,1-f][1,2,4]triazin-5-yl)piperidin-3-yl)-5-(difluoromethyl)thiophene-2-carboxamide]
29 nM	Nc1ncnn2c(-c3ccc(=O)n(CC(F)F)c3)cc(N3CCC[C@@H](NC(=O)c4sc(Cl)cc4OC4CN(CC(F)F)C4)C3)c12 [Example 387, (R)-N-(1-(4-amino-7-(1-(2,2-difluoroethyl)-6-oxo-1,6-dihydropyridin-3-yl)pyrrolo[2,1-f][1,2,4]triazin-5-yl)piperidin-3-yl)-5-chloro-3-((1-(2,2-difluoroethyl)azetidin-3-yl)oxy)thiophene-2-carboxamide]
31 nM	Nc1ncnn2c(-c3ccc(=O)n(CC(F)F)c3)cc(N3CCC[C@@H](NC(=O)c4sc(C(F)F)cc4N4CC5(COC5)C4)C3)c12 [Example 316, (R)-N-(1-(4-amino-7-(1-(2,2-difluoroethyl)-6-oxo-1,6-dihydropyridin-3-yl)pyrrolo[2,1-f][1,2,4]triazin-5-yl)piperidin-3-yl)-5-(difluoromethyl)-3-(2-oxa-6-azaspiro[3.3]heptan-6-yl)thiophene-2-carboxamide]

same assay, conditions: SGK1 IC50, Assay A; 20 μM ATP, 40 min incubation

SMILES	IC50
CC(=O)N1CC=C(c2cc(N3CCC[C@@H](NC(=O)c4cccc(S(=O)(=O)F)c4)C3)c3c(N)ncnn23)C1 [Example 869, (R)-3-((1-(7-(1-acetyl-2,5-dihydro-1H-pyrrol-3-yl)-4-aminopyrrolo[2,1-f][1,2,4]triazin-5-yl)piperidin-3-yl)carbamoyl)benzenesulfonyl fluoride]	125 nM

— US20260250290A1 (BRISTOL-MYERS SQUIBB COMPANY, priority 2023, published 2026)
